# In ChEMBL document CHEMBL3232974, “In vivo optimization of 2,3-diaminopyrazine Rho Kinase inhibitors for the treatment of glaucoma” (Bioorg Med Chem Lett, 2014):
# pIC50: −log10 of the molar value.
# Legend:
# Cynomolgus monkey [1] = assay: Antiglaucoma activity in cynomolgus monkey assessed as reduction in intraocular pressure at MTD administered as topical ocular dose after 6 hrs relative to control; assay type: functional, Macaca fascicularis, Eye; set-up: scale not given: the % may be the effect or the level left
# [2] = target: Rho-associated protein kinase 1 (Homo sapiens, UniProt Q13464); assay: Inhibition of truncated ROCK-1 (unknown origin)
# [3] = target: Rho-associated protein kinase 2 (Homo sapiens, UniProt O75116); assay: Inhibition of truncated ROCK-2 (unknown origin) after 60 mins by IMAP assay
# [4] = Drug level in Dutch-Belted rabbit aqueous humor at 100 ug administered as topical ocular instillation after 30 mins by RP-HPLC analysis; assay type: ADME, Oryctolagus cuniculus, Aqueous humor of eyeball; conditions: topical or ocular, read-out: Drug uptake
# Cynomolgus monkey [5] = assay: Toxicity in cynomolgus monkey compound administered as topical ocular dose after 6 hrs; assay type: organism-based, Macaca fascicularis, Eye; conditions: in vivo, topical_or_ocular
# [6] = Drug level in Dutch-Belted rabbit aqueous humor at 150 ug administered as topical ocular instillation after 30 mins by RP-HPLC analysis; assay type: ADME, Oryctolagus cuniculus, Aqueous humor of eyeball; conditions: topical or ocular, read-out: Drug uptake
# [7] = Aqueous solubility of the compound; assay type: physicochemical; conditions: buffer
# Cavia porcellus [8] = species on record: Cavia porcellus; assay: Antiglaucoma activity in guinea pig assessed as hyperemia at 30 ug after 2 hrs relative to control; assay type: functional
# Cavia porcellus [9] = species on record: Cavia porcellus; assay: Antiglaucoma activity in guinea pig assessed as lowest dose required for producing 100% hyperemia after 2 hrs; assay type: functional
# Cavia porcellus [10] = species on record: Cavia porcellus; assay: Antiglaucoma activity in guinea pig assessed as hyperemia at 300 ug after 2 hrs relative to control; assay type: functional
# Homo sapiens [11] = assay: Antiglaucoma activity in human assessed as reduction in intraocular pressure at 0.25% solution administered as topical ocular dose after 21 days relative to control; assay type: functional, Eye; set-up: scale not given: the % may be the effect or the level left
# [12] = Drug level in Dutch-Belted rabbit aqueous humor at 300 ug administered as topical ocular instillation after 30 mins by RP-HPLC analysis; assay type: ADME, Oryctolagus cuniculus, Aqueous humor of eyeball; conditions: topical or ocular, read-out: Drug uptake
# Cavia porcellus [13] = species on record: Cavia porcellus; assay: Antiglaucoma activity in guinea pig assessed as hyperemia at 100 ug after 2 hrs relative to control; assay type: functional
# Homo sapiens [14] = assay: Antiglaucoma activity in human assessed as reduction in intraocular pressure at 0.1% solution administered as topical ocular instillation relative to control; assay type: functional, Eye; set-up: scale not given: the % may be the effect or the level left
# Sequence of Rho-associated protein kinase 2 (O75116 whole entry, the tested form may be a part): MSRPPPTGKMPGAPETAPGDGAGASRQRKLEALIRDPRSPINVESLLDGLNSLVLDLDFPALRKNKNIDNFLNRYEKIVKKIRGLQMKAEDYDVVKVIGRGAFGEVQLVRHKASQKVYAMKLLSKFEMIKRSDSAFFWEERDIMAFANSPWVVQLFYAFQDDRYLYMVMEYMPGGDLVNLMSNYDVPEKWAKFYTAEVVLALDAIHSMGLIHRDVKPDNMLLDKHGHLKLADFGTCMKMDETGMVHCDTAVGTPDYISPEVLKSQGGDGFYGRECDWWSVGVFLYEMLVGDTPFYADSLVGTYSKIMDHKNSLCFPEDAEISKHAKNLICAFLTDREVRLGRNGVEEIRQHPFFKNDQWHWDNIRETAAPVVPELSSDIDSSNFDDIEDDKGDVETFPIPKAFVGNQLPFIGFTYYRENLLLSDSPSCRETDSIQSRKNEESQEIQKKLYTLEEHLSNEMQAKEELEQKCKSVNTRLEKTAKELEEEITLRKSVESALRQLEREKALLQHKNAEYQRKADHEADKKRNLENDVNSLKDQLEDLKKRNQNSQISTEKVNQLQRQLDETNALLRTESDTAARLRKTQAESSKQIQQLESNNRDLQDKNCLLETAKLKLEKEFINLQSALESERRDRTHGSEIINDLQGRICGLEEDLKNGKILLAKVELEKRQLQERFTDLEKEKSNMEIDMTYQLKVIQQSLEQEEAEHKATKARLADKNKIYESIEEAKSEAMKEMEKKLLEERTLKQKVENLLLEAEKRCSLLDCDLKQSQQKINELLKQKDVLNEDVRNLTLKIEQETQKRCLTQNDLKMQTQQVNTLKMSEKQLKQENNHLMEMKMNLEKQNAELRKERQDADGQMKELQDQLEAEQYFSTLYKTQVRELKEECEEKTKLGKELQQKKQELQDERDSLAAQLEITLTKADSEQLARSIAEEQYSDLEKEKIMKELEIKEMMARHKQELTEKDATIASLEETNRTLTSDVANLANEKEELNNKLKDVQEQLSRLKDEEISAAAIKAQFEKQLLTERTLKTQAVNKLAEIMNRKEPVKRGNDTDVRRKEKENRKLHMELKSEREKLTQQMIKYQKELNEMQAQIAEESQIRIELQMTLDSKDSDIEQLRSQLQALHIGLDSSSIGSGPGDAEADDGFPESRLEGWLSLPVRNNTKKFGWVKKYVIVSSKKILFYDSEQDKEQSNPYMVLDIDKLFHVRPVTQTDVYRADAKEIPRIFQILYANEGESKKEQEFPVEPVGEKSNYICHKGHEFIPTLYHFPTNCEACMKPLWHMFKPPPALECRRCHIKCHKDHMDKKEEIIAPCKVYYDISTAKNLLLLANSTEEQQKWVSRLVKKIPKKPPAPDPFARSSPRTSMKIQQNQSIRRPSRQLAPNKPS
# Sequence of Rho-associated protein kinase 1 (Q13464 whole entry, the tested form may be a part): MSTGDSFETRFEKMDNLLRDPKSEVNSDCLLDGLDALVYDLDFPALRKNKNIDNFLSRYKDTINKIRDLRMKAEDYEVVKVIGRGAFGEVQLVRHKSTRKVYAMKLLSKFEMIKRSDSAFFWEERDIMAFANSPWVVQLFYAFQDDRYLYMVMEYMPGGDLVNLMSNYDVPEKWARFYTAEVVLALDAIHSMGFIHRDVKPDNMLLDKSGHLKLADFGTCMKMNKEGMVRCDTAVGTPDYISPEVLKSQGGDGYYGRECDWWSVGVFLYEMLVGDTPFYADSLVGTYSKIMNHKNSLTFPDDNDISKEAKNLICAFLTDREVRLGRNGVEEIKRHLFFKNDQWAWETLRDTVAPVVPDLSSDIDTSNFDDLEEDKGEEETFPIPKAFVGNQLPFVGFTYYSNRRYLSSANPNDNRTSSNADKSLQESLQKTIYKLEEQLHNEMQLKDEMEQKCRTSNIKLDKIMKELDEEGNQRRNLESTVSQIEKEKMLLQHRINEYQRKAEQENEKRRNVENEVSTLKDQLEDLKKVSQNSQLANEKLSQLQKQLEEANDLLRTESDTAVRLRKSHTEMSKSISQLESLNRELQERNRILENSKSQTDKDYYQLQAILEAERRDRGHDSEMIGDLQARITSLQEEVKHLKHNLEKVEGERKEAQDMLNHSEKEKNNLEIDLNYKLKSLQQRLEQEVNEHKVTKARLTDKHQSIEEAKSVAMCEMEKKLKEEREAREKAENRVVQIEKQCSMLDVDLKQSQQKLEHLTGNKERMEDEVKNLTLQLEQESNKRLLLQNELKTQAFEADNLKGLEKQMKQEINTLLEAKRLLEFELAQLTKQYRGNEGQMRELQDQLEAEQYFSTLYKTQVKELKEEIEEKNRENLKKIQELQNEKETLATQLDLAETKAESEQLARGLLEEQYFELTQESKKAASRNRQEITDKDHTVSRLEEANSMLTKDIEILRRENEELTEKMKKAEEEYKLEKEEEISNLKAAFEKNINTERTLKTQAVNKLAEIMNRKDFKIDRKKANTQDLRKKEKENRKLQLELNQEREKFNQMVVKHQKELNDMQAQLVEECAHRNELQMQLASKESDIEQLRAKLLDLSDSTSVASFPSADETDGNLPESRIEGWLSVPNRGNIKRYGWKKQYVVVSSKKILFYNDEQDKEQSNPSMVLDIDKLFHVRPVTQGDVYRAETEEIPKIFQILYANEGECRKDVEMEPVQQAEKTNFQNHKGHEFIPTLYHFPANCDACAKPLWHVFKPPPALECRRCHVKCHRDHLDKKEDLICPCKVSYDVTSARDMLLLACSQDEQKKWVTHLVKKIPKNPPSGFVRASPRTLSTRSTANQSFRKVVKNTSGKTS
smiles,measurement,setting,value
Cc1n[nH]c2ccc(-c3cncc(N4CCCNCC4)n3)cc12,Activity,Cynomolgus monkey [1],31%
same,pIC50,[2],6.85
same,pIC50,[3],7.44
same,concentration at 0.5 h,[4],200 nM
same,MTD,Cynomolgus monkey [5],0.33%
CC(=O)NCCCN1CCN(c2nc(-c3ccncc3)cnc2N2CCCC2)CC1,Activity,Cynomolgus monkey [1],24%
same,pIC50,[2],6.46
same,concentration at 0.5 h,[6],8300 nM
same,pIC50,[3],7.12
same,MTD,Cynomolgus monkey [5],0.5%
same,solubility,[7],soluble
same,Activity,Cavia porcellus [8],66%
c1cc2[nH]ncc2cc1-c1cncc(N2CCCNCC2)n1,Activity,Cavia porcellus [9],30 µg
same,Activity,Cynomolgus monkey [1],30%
same,pIC50,[2],6.98
same,pIC50,[3],7.62
same,concentration at 0.5 h,[4],1000 nM
same,MTD,Cynomolgus monkey [5],0.33%
CN(C)CC(O)CN1CCN(c2nc(-c3ccncc3)cnc2N2CCCC2)CC1 (configuration not stated),Activity,Cavia porcellus [10],58%
same,Activity,Cynomolgus monkey [1],14%
same,pIC50,[2],6.54
same,concentration at 0.5 h,[6],950 nM
same,pIC50,[3],7.12
same,MTD,Cynomolgus monkey [5],1%
same,solubility,[7],soluble
CNC(CC1CCCCC1)C(=O)Nc1ccc2cnccc2c1 (configuration not stated),Activity,Homo sapiens [11],20%
OCCN1CCN(c2nc(-c3ccncc3)cnc2N2CCCC2)CC1,concentration at 0.5 h,[12],3800 nM
same,Activity,Cavia porcellus [13],33%
same,Activity,Cynomolgus monkey [1],26%
same,pIC50,[2],6.24
same,pIC50,[3],7.41
same,MTD,Cynomolgus monkey [5],1%
same,solubility,[7],soluble
C[C@@H](N)c1ccc(C(=O)Nc2ccnc3[nH]ccc23)cc1 [Y-39983],concentration at 0.5 h,[12],4400 nM
same,Activity,Cavia porcellus [9],3 µg
same,Activity,Cynomolgus monkey [1],<15%
same,Activity,Homo sapiens [14],22%
same,MTD,Cynomolgus monkey [5],0.1%
same,solubility,[7],soluble
CC(=O)NCC(O)CN1CCN(c2nc(-c3ccncc3)cnc2N2CCCC2)CC1 (configuration not stated),Activity,Cavia porcellus [13],42%
same,Activity,Cynomolgus monkey [1],9%
same,pIC50,[2],6.46
same,pIC50,[3],7.17
same,concentration at 0.5 h,[4],4800 nM
same,MTD,Cynomolgus monkey [5],0.33%
same,solubility,[7],soluble
c1nc(N2CCCC2)c(N2CCCNCC2)nc1-c1cc2cn[nH]c2cn1,Activity,Cavia porcellus [9],30 µg
same,Activity,Cynomolgus monkey [1],26%
same,pIC50,[2],6.69
same,concentration at 0.5 h,[6],680 nM
same,pIC50,[3],7.19
same,MTD,Cynomolgus monkey [5],0.33%
